Results: the supplement of paper PMC10627819

Columns and labels:
S. aureus DSM 20231 [1] = test: Bliss interaction score (quartile over a dose matrix) (fitness difference); higher = more antagonism (negative = synergy)
In short: (§1)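 Quartiles of the Bliss score were taken over technical, biological and donor/recipient replicates. That score is observed fitness minus the product of the single-drug fitness values, which were inferred from combination data. Fitness itself is OD595 at entry into stationary phase divided by the plate's robust no-drug mean, with a cap at 1.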

S. aureus Newman [2] = test: as above
In short: as §1

B. subtilis 168 = test: as above
In short: as §1

S. pneumoniae D39V [3] = test: as above
In short: as §1

S. aureus DSM 20231 [4] = test: fitness (endpoint OD595 vs no drug) (fraction); higher = more growth
In short: (§2)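 Volumes were 30 µl per well, or 55 µl for S. pneumoniae, in 384-well plates inoculated at OD595 0.01. Media were TSB, LB Lennox or CY at 37 °C, and OD595 was read every 30 min for 14 h with first-reading background subtraction. Fitness is the ratio of optical density at stationary-phase entry to the robust mean of no-drug controls. That ratio is capped at 1.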

S. aureus Newman [5] = test: as above
In short: as §2

S. pneumoniae D39V [6] = test: as above
In short: as §2
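For Bliss interaction score (quartile over a dose matrix) in this document: first quartile when negative (synergy) and third quartile when positive (antagonism).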

CO/N=C(\C(=O)N[C@@H]1C(=O)N2C(C(=O)[O-])=C(C[N+]3(C)CCCC3)CS[C@H]12)c1csc(N)n1 [Cefepime] + Cn1nnc(-c2ccc(-c3ccc(N4C[C@H](CO)OC4=O)cc3F)cn2)n1 [Tedizolid]
Details | Bliss interaction score
B. subtilis 168 | 0.12
S. aureus DSM 20231 [1] | 0.122
S. aureus Newman [2] | -0.0634
S. pneumoniae D39V [3] | 0.237

fitness
Details | partner 0.03125 µg/mL | partner 0.0625 µg/mL | partner 0.125 µg/mL | partner 0.25 µg/mL | partner 0.5 µg/mL
S. aureus DSM 20231 [4], first compound 0.125 µg/mL | – | 0.879 | 0.804 | 0.692 | –
S. aureus DSM 20231 [4], first compound 0.25 µg/mL | – | 0.796 | 0.738 | 0.601 | –
S. aureus DSM 20231 [4], first compound 0.5 µg/mL | – | 0.844 | 0.797 | 0.69 | –
S. aureus Newman [5], first compound 0.125 µg/mL | – | 0.858 | 0.837 | – | –
S. aureus Newman [5], first compound 0.25 µg/mL | – | 0.81 | 0.773 | – | –
S. aureus Newman [5], first compound 0.5 µg/mL | – | 0.728 | 0.717 | – | –
S. pneumoniae D39V [6], first compound 0.007 µg/mL | – | – | 0.953 | 0.642 | 0.129
S. pneumoniae D39V [6], first compound 0.0078 µg/mL | 0.986 | 0.983 | 0.879 | – | –
S. pneumoniae D39V [6], first compound 0.014 µg/mL | – | – | 0.95 | 0.626 | 0.149
S. pneumoniae D39V [6], first compound 0.0155 µg/mL | 0.969 | 0.974 | 0.895 | – | –
S. pneumoniae D39V [6], first compound 0.028 µg/mL | – | – | 0.937 | 0.652 | 0.105
S. pneumoniae D39V [6], first compound 0.031 µg/mL | 0.971 | 0.948 | 0.888 | – | –

CO/N=C(\C(=O)N[C@@H]1C(=O)N2C(C(=O)[O-])=C(C[N+]3(C)CCCC3)CS[C@H]12)c1csc(N)n1 [Cefepime] + CN(N=O)C(=O)N[C@@H](C=O)[C@@H](O)[C@H](O)[C@H](O)CO [Streptozotocin]
Details | Bliss interaction score
B. subtilis 168 | -0.0416
S. aureus DSM 20231 [1] | -0.0779
S. aureus Newman [2] | 0.0304
S. pneumoniae D39V [3] | -0.0319

fitness
Details | first compound 0.007 µg/mL | first compound 0.014 µg/mL | first compound 0.028 µg/mL | first compound 0.125 µg/mL | first compound 0.25 µg/mL | first compound 0.5 µg/mL
S. aureus DSM 20231 [4], partner 0.15 µg/mL | – | – | – | 0.789 | 0.705 | 0.721
S. aureus DSM 20231 [4], partner 0.3 µg/mL | – | – | – | 0.667 | 0.645 | 0.713
S. aureus DSM 20231 [4], partner 0.6 µg/mL | – | – | – | 0.589 | 0.588 | 0.61
S. aureus Newman [5], partner 0.15 µg/mL | – | – | – | 0.814 | 0.765 | 0.682
S. aureus Newman [5], partner 0.3 µg/mL | – | – | – | 0.717 | 0.641 | 0.66
S. aureus Newman [5], partner 0.6 µg/mL | – | – | – | 0.505 | 0.482 | 0.506
S. pneumoniae D39V [6], partner 1.2 µg/mL | 0.964 | 0.935 | 0.824 | – | – | –
S. pneumoniae D39V [6], partner 2.4 µg/mL | 0.987 | 0.993 | 0.923 | – | – | –
S. pneumoniae D39V [6], partner 4.8 µg/mL | 0.966 | 0.983 | 0.868 | – | – | –

fitness, S. pneumoniae D39V [6], one replicate
Details | first compound 0.0078 µg/mL | first compound 0.0155 µg/mL | first compound 0.031 µg/mL
partner 1.2 µg/mL | 0.984 | 0.953 | 0.186
partner 2.4 µg/mL | ≥ 1 | 0.937 | 0.289
partner 4.8 µg/mL | 0.956 | 0.895 | 0.0426
